According to ChEMBL document CHEMBL5532653, “Dual inhibitors of HDAC and other epigenetic regulators: A novel strategy for cancer treatment” (Eur J Med Chem, 2024):

Assays:
[1] = tested on: SK-MEL-5; test: Antiproliferative activity against human SK-MEL-5 cells assessed as reduction in cell viability incubated for 72 hrs by MTT assay; assay type: functional, cell-based; conditions: SK-MEL-5, 72 h
[2] = Antiproliferative activity against human WM983B cells assessed as reduction in cell growth incubated for 72 hrs by MTT assay; assay type: functional, cell-based
[3] = Antiproliferative activity against human SCCIC1 cells assessed as cell growth inhibition measured after 72 hrs; assay type: functional, cell-based; conditions: SCCIC1, 72 h
[4] = Inhibition of HDAC1 ([…] residues) (unknown origin) FLAG-tagged CoREST1 (unknown origin) transfected in HEK293F cells using fluorogenic p53 (RHKK(Ac)AMC) as substrate preincubated for 30 mins followed by substrate addition and measured after 15 mins by fluorescence based analysis; design: species or system Homo sapiens
[5] = Antiproliferative activity against human MET-1 cells assessed as reduction in cell viability incubated for 72 hrs by MTT assay; assay type: functional, cell-based; conditions: MET-1, 72 h
[6] = Cytotoxicity against human CLL cells assessed as reduction in cell viability at 5 uM relative to control; assay type: toxicity, cell-based
[7] = tested on: MEF; test: Antiproliferative activity against mouse MEF cells assessed as cell growth inhibition measured after 48 hrs by MTT assay; assay type: functional, cell-based
[8] = tested on: NCI-H460; test: Antiproliferative activity against human NCI-H460 cells assessed as reduction in cell growth measured after 72 hrs by MTT assay; assay type: functional, cell-based; conditions: NCI-H460, 72 h
[9] = molecular target: T1, Histone deacetylase 2 (Homo sapiens, UniProt Q92769); test: Inhibition of HDAC2 (unknown origin) by fluorescence based analysis
[10] = molecular target: Histone deacetylase 3 (Homo sapiens, UniProt O15379); test: Inhibition of HDAC3 (unknown origin) using biotinylated histone H3 KAc peptide (1 to 21 residues) as substrate by HTRF assay
[11] = molecular target: Histone deacetylase 8 (Homo sapiens, UniProt Q9BY41); test: Inhibition of HDAC8 (unknown origin) using Fluoro-Substrate Peptide as substrate by fluorescence assay
[12] = molecular target: T2, Bromodomain-containing protein 3 (Homo sapiens, UniProt Q15059); test: Inhibition of recombinant BRD3 BD1 (unknown origin) incubated for 120 mins by TR-FRET assay
[13] = molecular target: T3, Bromodomain-containing protein 2 (Homo sapiens, UniProt P25440); test: Inhibition of BRD2 BD2 (unknown origin) incubated for 180 min by TR-FRET assay
[14] = molecular target: Bromodomain testis-specific protein (Homo sapiens, UniProt Q58F21); test: Inhibition of BRDT BD2 (unknown origin) by TR-FRET assay
[15] = molecular target: T4, Protein deacetylase HDAC6 (Homo sapiens, UniProt Q9UBN7); test: Inhibition of HDAC6 (unknown origin) by fluorescence based assay
T4 sequence (Q9UBN7 whole entry): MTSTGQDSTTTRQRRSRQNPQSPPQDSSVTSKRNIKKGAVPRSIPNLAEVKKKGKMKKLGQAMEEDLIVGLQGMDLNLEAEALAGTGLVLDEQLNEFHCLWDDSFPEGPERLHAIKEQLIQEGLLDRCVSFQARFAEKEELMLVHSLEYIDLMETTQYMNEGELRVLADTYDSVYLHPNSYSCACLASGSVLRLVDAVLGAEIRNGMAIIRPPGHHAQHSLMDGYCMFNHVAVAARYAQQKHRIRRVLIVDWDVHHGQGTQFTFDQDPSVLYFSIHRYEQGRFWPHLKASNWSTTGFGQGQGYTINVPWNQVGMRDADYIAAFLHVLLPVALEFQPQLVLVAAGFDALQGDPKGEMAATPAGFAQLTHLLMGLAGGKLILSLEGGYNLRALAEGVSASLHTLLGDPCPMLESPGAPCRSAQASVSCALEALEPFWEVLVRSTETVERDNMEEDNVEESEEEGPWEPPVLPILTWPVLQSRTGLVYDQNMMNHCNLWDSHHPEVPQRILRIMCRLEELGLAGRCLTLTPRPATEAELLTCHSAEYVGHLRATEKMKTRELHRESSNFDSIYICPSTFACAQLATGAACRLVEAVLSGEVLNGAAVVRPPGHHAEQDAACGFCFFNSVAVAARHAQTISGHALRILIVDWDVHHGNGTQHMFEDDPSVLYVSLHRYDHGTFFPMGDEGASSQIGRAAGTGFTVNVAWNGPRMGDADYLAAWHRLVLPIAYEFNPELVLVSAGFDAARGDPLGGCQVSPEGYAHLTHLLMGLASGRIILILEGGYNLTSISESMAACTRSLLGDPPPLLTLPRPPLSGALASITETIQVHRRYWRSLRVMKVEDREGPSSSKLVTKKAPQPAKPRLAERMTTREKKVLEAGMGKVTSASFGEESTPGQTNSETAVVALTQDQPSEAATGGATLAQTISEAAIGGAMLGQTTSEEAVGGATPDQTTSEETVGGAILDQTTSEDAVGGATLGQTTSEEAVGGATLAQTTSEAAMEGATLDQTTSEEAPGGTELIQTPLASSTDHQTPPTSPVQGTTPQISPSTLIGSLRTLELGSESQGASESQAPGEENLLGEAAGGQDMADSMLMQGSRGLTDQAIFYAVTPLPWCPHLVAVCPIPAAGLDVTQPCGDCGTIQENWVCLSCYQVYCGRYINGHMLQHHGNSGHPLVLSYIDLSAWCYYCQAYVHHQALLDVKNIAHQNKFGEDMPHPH

[16] = molecular target: T2, Bromodomain-containing protein 3; test: Inhibition of BRD3 BD2 (unknown origin) incubated for 180 min by TR-FRET assay
[17] = molecular target: T3, Bromodomain-containing protein 2; test: Inhibition of recombinant BRD2 BD1 (unknown origin) incubated for 120 mins by TR-FRET assay
[18] = tested on: HeLa; test: Antiproliferative activity against human HeLa cells assessed as reduction in cell viability by MTT assay; assay type: functional, cell-based
[19] = tested on: A549; test: Antiproliferative activity against human A549 cells assessed as reduction in cell viability measured after 48 hrs by MTT assay; assay type: functional, cell-based; conditions: A549, 48 h
[20] = tested on: K562; test: Antiproliferative activity against human K562 cells assessed as reduction in cell viability by MTT assay; assay type: functional, cell-based
[21] = Cytotoxicity against human HEK293T cells assessed as cell growth inhibition by MTT assay; assay type: toxicity, cell-based, HEK-293T
[22] = tested on: MCF7; test: Antiproliferative activity against human MCF7 cells assessed as reduction in cell growth incubated for 72 hrs by MTT assay; assay type: functional, cell-based; conditions: MCF7, 72 h
[23] = tested on: U-937; test: Antiproliferative activity against human U-937 cells assessed as inhibition of cell growth at 3 uM measured after 72 hrs by CellTiter-Glo luminescent cell viability assay relative to control; assay type: functional
[24] = molecular target: T1, Histone deacetylase 2; test: Inhibition of human recombinant HDAC2 in HeLa cells using Boc-Lys(Ac)-AMC or Boc-Lys(Tfa)-AMC as fluorogenic substrate preincubated for 10 mins followed by substrate addition and measured after 1 hr by fluorescence based analysis; assay type: cell-based
[25] = molecular target: Histone deacetylase; test: Inhibition of human recombinant HDAC in HeLa cells using Boc-Lys(Ac)-AMC or Boc-Lys(Tfa)-AMC as fluorogenic substrate preincubated for 10 mins followed by substrate addition and measured after 1 hr by fluorescence based analysis; assay type: cell-based
[26] = molecular target: T4, Protein deacetylase HDAC6; test: Inhibition of human recombinant HDAC6 in HeLa cells using Boc-Lys(Ac)-AMC or Boc-Lys(Tfa)-AMC as fluorogenic substrate preincubated for 10 mins followed by substrate addition and measured after 1 hr by fluorescence based analysis; assay type: cell-based
[27] = molecular target: T4, Protein deacetylase HDAC6; test: Inhibition of HDAC6 (unknown origin) using expressed in Sf9 cells using Boc-Lys(acetyI)-AMC as substrate preincubated for 1 hr followed by substrate addition and measured after 30 mins by fluorescence based analysis
[28] = molecular target: T5, Histone deacetylase 1 (Homo sapiens, UniProt Q13547); test: Inhibition of HDAC1 (unknown origin) using Boc-Lys(Ac)-AMC or Boc-Lys(Tfa)-AMC as substrate incubated for 1 hr by fluorescence based analysis
[29] = molecular target: T6, DNA (cytosine-5)-methyltransferase 1 (Homo sapiens, UniProt P26358); test: Inhibition of DNMT1 (unknown origin) using SAM as substrate at 1 uM by fluorescence assay relative to control
[30] = tested on: U-937; test: Antiproliferative activity against human U-937 cells assessed as reduction in cell growth incubated for 72 hrs by MTT assay; assay type: functional, cell-based; conditions: U-937, 72 h
[31] = tested on: D283 Med; test: Antiproliferative activity against human D283 Med cells assessed as inhibition of cell growth measured after 72 hrs by CellTiter-Glo assay; assay type: functional, cell-based
[32] = tested on: A549; test: Antiproliferative activity against human A549 cells assessed as reduction in cell growth by MTT assay; assay type: functional, cell-based
[33] = molecular target: T6, DNA (cytosine-5)-methyltransferase 1; test: Inhibition of DNMT1 (unknown origin)
[34] = tested on: MDA-MB-231; test: Antiproliferative activity against human MDA-MB-231 cells assessed as reduction in cell growth by MTT assay; assay type: functional, cell-based
[35] = molecular target: DNMT3B-DNMT3L complex (Homo sapiens, UniProt Q9UBC3); test: Inhibition of DNMT3B/3L (unknown origin); assay type: protein-complex assay
[36] = molecular target: DNMT3A2/3L complex (Homo sapiens, UniProt Q9Y6K1); test: Inhibition of DNMT3A/DNMT3L (unknown origin); assay type: protein-complex assay
[37] = molecular target: T5, Histone deacetylase 1; test: Inhibition of HDAC1 (unknown origin) using ArgHisLysLys(Ac) as substrate by fluorescence based analysis
[38] = tested on: MCF7; test: Antiproliferative activity against human MCF7 cells assessed as reduction in cell growth by MTT assay; assay type: functional, cell-based
[39] = molecular target: T4, Protein deacetylase HDAC6; test: Inhibition of HDAC6 (unknown origin) using Ac-peptide as substrate preincubated for 15 mins followed by substrate addition and measured after 1 hr by HTRF analysis

T6 sequence (P26358 whole entry): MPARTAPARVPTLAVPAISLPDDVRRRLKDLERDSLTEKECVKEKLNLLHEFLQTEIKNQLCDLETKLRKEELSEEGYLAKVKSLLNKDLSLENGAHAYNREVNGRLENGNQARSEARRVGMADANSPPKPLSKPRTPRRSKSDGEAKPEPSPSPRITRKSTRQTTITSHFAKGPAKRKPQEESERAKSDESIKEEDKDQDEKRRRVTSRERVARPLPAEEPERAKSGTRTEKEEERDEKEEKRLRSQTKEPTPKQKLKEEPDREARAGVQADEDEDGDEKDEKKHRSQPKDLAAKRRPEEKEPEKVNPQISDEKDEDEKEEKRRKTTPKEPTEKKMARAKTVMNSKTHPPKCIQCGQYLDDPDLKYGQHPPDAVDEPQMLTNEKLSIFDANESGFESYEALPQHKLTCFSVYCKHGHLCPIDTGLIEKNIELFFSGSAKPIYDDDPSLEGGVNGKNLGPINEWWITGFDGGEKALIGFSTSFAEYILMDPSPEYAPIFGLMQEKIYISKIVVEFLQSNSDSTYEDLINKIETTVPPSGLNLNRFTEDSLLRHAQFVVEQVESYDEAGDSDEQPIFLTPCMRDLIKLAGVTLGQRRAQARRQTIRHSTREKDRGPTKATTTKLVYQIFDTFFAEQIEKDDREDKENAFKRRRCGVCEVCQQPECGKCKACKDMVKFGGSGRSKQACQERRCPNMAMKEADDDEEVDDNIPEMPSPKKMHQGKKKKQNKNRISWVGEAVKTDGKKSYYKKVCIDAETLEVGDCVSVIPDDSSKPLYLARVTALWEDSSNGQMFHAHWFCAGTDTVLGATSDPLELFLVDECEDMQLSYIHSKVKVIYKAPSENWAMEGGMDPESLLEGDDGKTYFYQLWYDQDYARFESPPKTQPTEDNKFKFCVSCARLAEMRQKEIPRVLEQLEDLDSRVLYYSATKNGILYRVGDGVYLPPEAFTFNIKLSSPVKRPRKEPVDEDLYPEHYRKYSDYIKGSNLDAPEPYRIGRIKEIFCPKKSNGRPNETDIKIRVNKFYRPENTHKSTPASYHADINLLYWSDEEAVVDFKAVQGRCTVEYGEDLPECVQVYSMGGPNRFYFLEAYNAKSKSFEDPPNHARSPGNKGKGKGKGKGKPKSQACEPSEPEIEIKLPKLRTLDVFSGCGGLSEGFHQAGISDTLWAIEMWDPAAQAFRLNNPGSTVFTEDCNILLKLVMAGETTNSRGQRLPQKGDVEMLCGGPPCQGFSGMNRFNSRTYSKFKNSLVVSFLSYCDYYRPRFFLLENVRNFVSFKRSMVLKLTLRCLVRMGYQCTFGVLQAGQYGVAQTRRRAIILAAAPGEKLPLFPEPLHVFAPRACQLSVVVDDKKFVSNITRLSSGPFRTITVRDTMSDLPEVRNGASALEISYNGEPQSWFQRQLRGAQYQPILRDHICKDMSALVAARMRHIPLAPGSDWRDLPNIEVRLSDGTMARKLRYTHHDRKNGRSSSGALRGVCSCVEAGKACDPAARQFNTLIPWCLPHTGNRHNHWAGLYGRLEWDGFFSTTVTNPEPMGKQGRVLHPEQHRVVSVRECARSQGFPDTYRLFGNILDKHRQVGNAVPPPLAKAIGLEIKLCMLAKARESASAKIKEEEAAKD
T3 sequence (P25440 whole entry): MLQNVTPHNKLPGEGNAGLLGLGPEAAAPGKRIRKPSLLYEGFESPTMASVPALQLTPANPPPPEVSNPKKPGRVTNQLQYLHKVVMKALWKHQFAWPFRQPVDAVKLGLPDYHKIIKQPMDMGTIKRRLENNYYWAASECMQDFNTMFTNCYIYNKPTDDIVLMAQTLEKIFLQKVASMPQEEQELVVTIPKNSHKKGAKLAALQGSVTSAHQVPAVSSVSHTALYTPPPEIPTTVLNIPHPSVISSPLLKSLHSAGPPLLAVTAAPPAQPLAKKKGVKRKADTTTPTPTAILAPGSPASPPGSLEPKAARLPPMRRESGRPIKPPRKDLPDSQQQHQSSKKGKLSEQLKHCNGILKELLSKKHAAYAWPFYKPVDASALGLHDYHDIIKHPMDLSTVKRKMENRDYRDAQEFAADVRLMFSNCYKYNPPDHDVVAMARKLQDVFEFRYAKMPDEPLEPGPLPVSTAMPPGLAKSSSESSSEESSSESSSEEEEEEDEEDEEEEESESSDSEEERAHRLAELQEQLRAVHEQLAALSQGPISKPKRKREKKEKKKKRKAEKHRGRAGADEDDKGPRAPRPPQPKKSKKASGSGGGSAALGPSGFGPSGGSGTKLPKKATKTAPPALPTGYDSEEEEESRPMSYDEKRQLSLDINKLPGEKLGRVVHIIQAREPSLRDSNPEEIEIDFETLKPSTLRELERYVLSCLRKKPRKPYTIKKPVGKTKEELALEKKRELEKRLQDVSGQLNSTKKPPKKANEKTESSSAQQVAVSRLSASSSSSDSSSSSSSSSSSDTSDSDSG
T2 sequence (Q15059 whole entry): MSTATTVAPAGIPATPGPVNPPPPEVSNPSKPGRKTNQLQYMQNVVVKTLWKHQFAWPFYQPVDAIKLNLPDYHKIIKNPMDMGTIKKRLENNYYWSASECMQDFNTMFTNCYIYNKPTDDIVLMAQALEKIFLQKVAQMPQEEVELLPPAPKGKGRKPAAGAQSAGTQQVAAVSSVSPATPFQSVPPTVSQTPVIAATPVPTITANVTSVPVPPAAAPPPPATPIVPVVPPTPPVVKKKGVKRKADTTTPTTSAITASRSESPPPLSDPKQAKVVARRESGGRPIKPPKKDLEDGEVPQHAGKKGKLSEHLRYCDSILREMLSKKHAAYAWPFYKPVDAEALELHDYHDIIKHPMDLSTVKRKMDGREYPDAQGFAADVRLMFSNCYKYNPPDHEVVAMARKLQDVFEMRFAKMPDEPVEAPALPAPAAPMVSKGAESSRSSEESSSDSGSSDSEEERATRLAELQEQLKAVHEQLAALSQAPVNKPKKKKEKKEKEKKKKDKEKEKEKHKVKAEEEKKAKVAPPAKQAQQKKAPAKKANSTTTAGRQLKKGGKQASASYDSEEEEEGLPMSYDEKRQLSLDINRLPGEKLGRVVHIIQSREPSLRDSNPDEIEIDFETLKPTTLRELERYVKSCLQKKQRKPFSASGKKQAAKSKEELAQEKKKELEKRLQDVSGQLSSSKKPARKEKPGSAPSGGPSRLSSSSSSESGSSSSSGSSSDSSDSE
T5 sequence (Q13547 whole entry): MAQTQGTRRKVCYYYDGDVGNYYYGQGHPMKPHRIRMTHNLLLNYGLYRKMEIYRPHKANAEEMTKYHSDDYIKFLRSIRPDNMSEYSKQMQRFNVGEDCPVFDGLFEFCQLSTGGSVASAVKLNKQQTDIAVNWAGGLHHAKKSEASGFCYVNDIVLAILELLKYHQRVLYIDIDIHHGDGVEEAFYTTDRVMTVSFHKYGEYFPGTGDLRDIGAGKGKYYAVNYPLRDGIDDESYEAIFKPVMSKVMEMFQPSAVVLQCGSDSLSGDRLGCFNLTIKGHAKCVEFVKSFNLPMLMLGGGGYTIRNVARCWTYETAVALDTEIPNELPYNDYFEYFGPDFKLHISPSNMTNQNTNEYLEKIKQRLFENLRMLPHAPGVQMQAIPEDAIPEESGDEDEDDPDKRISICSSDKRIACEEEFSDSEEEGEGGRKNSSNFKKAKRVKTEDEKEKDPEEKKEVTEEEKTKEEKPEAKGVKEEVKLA
T1 sequence (Q92769 whole entry, the tested form may be a part): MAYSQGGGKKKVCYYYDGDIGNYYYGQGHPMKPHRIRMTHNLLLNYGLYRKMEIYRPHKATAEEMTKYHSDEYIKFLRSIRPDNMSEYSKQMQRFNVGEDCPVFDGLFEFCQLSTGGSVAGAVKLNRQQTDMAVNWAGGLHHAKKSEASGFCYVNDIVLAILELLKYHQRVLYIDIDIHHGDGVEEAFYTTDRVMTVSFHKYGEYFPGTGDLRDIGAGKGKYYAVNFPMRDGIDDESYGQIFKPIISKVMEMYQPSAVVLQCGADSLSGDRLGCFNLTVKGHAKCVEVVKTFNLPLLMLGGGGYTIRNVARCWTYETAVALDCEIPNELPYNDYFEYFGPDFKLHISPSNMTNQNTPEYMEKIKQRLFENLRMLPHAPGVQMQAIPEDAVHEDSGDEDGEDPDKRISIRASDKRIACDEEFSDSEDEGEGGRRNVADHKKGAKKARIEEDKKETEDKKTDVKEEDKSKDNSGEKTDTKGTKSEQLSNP
Chain of DNMT3A2/3L complex (Q9Y6K1 whole entry, looked up, one chain of several): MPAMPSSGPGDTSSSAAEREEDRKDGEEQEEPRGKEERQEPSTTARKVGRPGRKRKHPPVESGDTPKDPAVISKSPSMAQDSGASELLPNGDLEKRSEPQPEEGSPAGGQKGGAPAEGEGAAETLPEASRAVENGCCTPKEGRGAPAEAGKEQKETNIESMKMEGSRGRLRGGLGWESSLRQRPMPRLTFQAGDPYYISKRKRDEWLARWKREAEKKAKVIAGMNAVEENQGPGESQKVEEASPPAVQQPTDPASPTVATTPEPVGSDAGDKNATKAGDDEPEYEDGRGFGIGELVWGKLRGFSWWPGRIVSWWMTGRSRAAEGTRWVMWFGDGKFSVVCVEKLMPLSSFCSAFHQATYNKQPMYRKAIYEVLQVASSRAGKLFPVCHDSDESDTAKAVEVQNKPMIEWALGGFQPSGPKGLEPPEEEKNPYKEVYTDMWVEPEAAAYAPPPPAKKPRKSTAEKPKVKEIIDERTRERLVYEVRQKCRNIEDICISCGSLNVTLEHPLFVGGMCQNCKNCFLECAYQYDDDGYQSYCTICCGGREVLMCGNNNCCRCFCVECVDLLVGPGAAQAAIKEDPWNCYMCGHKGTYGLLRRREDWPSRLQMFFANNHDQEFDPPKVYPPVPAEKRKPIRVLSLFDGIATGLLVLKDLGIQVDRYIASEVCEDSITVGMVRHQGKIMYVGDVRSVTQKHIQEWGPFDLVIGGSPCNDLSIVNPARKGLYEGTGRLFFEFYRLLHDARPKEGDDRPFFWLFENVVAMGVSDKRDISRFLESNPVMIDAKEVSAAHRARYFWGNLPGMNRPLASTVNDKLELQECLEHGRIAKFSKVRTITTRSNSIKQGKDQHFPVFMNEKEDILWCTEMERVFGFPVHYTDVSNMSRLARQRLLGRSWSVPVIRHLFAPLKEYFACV

## Nc1ccccc1NC(=O)c1ccc(CCCC(=O)Nc2ccc(C3CC3N)cc2)cc1 (centres undefined)
[1]
  IC50: 130 nM
[2]
  IC50: 200 nM
[3]
  IC50: 41 nM
[4]
  IC50: 206 nM
[5]
  IC50: 6 nM

## Cn1c(CCCCCCC(=O)NO)nc2cc(N(CCCl)CCCl)ccc21 [TINOSTAMUSTINE]
[6]
  Activity: ~ 100 nM
[7]
  IC50: 5700 nM
[8]
  IC50: 2200 nM

## Cc1sc2c(c1C)C(c1ccc(Cl)cc1)=N[C@@H](CC(=O)Nc1ccc(C(=O)NO)cc1)c1nnc(C)n1-2
[9]
  IC50: 52 nM
[10]
  IC50: 39 nM
[11]
  IC50: 192 nM
[12]
  IC50: 133 nM
[13]
  IC50: 78 nM
[14]
  IC50: 32200 nM
[15]
  IC50: 34 nM
[16]
  IC50: 38 nM
[17]
  IC50: 316 nM

## COc1ccc2c(NC3CCN(Cc4ccccc4)CC3)nc(NCCNC(=O)CCCCC(=O)NO)nc2c1
[18]
  IC50: 15300 nM
[19]
  IC50: 36200 nM
[20]
  IC50: 5740 nM
[21]
  IC50: 20000 nM
[22]
  IC50: 37400 nM

## Cc1sc2c(c1C)C(c1ccc(Cl)cc1)=N[C@@H](CC(=O)NCCCC(=O)Nc1ccccc1N)c1nnc(C)n1-2
[23]
  inhibition at 3 µM: 84%

## Cc1noc(C)c1-c1ccc2c(c1)c(Cc1ccc(F)cc1)cn2CCCCCCC(=O)NO
[24]
  IC50: 29 nM
[25]
  IC50: 291 nM
[26]
  IC50: > 1000 nM

## Nc1ncnc2c1ncn2Cc1ccc(-c2cn(CCCCCCC(=O)NO)nn2)cc1
[27]
  IC50: 4.8 nM
[28]
  IC50: 2.4 nM
[29]
  inhibition: 44.5%
[30]
  IC50: 1300 nM

## Cn1cc(-c2ccc(S(=O)(=O)n3ccc(/C=C/C(=O)Nc4ccccc4N)c3)cc2)cn1 [DOMATINOSTAT]
[31]
  IC50: 150 nM

## O=C(NO)C1CCN(C[C@@H](O)COC(Cn2c3ccccc3c3ccccc32)Cn2c3ccccc3c3ccccc32)CC1
[32]
  IC50: 3920 nM
[33]
  IC50: 2020 nM
[34]
  IC50: 4650 nM
[35]
  IC50: 1320 nM
[36]
  IC50: 930 nM
[37]
  IC50: 4160 nM
[38]
  IC50: 1880 nM
[39]
  IC50: > 100000 nM
